Values joined by “and” are separate entries in the source; they are usually repeats but may differ in a detail not shown here. Equal entries are not always repeated.
Experiments:
[1] = biological target: T1, hEAAT2 mutant R478A (Homo sapiens, UniProt P43004, R478A); assay: whole-cell patch-clamp, hEAAT2 mutant R478A in HEK293T cells; type: cell-based; conditions: 0 mV; for WAY-213613-inhibited current, normalized (MEAN): R478A
T1 construct: Strep Tag II (N); superfolder GFP (sfGFP) (N); expressed in transfected cells; host or cells: HEK293T
Method: (§1) Human embryonic kidney 293T (HEK293T) cells were cultured in Dulbecco’s Modified Eagle Medium (DMEM, Gibco) media supplemented with 15% (v/v) fetal bovine serum (FBS, PAN-Biotech) at 37 °C with 5% CO2. HEK293T cells were grown in the culture dishes (d = 3.5 cm) (Thermo Fisher Scientific) for 24 h and then 1 μg hEAAT2 wild-type and mutant plasmids for per dishes were used to transiently transfect HEK293T using 0.7 μg Lipofectamine 2000 Reagent (Thermo Fisher Scientific). Cells were analyzed using electrophysiological experiments between 24 and 40 h after transfection at room temperature (21–25 °C).
(§2) Electrophysiological experiments were performed as described previously with a minor modification. External buffer contained 140 mM NaCl, 2 mM MgCl2, 2 mM CaCl2, and 10 mM HEPES (pH = 7.4 with NaOH and osmolarity of ∼310 mosmol L^−1) and while internal pipette solution comprised of 130 mM NaSCN, 2 mM MgCl2, 10 mM EGTA, 10 mM HEPES (pH = 7.4 with NaOH and osmolarity of ∼310 mosmol L^−1) and 10 mM glutamate. 50 mM WAY-213613 stock solutions were prepared in dimethyl sulfoxide (DMSO), followed by dilutions to working concentrations with the above-mentioned external buffer. […] Whole cell patch-clamp experiment recordings were made from isolated GFP-positive HEK293T cells (hEAAT2 wild type and mutants). In all, 3–6 MΩ was used to fire a polished pipette (Sutter Instrument). […] Cells were immersed in the above-mentioned external buffer supplemented with a specified concentration of glutamate or WAY-213613. Glutamate-induced anion current, Na^+-dependent anion leak current and glutamate transport current or WAY-213613 inhibited anion leak currents were recorded using an EPC-10 amplifier (HEKA Electronic) at a 20 kHz sample rate with low pass filter at 5 kHz. All experiments were executed at 0 mV. After the cell current was stabilized, glutamate or WAY-213613 was sustained at the indicated concentrations from external dosing for at least 6 s. Subsequently, the cell was washed away with external buffer to start a new round of applications or end the experiment. The plateau currents were used for the following calculations. For analysis, the data was acquired by PatchMaster program (HEKA Electronic) at 5 s after recording. Nonlinear dose–response relationships were fitted into a Michaelis–Menten-like equation shown as below to obtain the apparent Km and Ki values in the presence of glutamate or WAY-213613.1 I/Imax=Km/i/C+Km/i In this equation, I represent the current at different glutamate or inhibitor concentrations, and Imax represents the maximal current at the saturating concentration of glutamate or inhibitor. [C] represents the concentration of glutamate or inhibitor. Km/i represents the apparent constant.

[2] = biological target: T2, hEAAT2 mutant I464V (Homo sapiens, UniProt P43004, I464V); assay: whole-cell patch-clamp, hEAAT2 mutant I464V in HEK293T cells; type: cell-based; conditions: 0 mV; for WAY-213613-inhibited current, normalized (MEAN): I464V
T2 construct: Strep Tag II (N); superfolder GFP (sfGFP) (N); expressed in transfected cells; host or cells: HEK293T
Method: as §1, §2

[3] = tested on: hEAAT3; conditions: cited from earlier work
[4] = biological target: T3, hEAAT2 mutant D475A (Homo sapiens, UniProt P43004, D475A); assay: whole-cell patch-clamp, hEAAT2 mutant D475A in HEK293T cells; type: cell-based; conditions: 0 mV; for WAY-213613-inhibited current, normalized (MEAN): D475A
T3 construct: Strep Tag II (N); superfolder GFP (sfGFP) (N); expressed in transfected cells; host or cells: HEK293T
Method: as §1, §2

[5] = biological target: T4, hEAAT2 mutant V468I (Homo sapiens, UniProt P43004, V468I); assay: whole-cell patch-clamp, hEAAT2 mutant V468I in HEK293T cells; type: cell-based; conditions: 0 mV; for WAY-213613-inhibited current, normalized (MEAN): V468I
T4 construct: Strep Tag II (N); superfolder GFP (sfGFP) (N); expressed in transfected cells; host or cells: HEK293T
Method: as §1, §2

[6] = tested on: ionotropic and metabotropic glutamate receptors; conditions: sentence of earlier manuscript version quoted by reviewer; no reference given; cited from earlier work
[7] = tested on: hEAAT2; conditions: cited from earlier work
[8] = biological target: T5, wild-type hEAAT2 (Homo sapiens, UniProt P43004); assay: whole-cell patch-clamp of hEAAT2-associated anion current, wild-type hEAAT2 in HEK293T cells; type: cell-based; conditions: for WAY-213613-inhibited current, normalized (MEAN): WT
T5 construct: Strep Tag II (N); superfolder GFP (sfGFP) (N); expressed in transfected cells; host or cells: HEK293T
Method: as §1, §2

[9] = biological target: T6, hEAAT2 mutant S441G (Homo sapiens, UniProt P43004, S441G); assay: whole-cell patch-clamp, hEAAT2 mutant S441G in HEK293T cells; type: cell-based; conditions: 0 mV; for WAY-213613-inhibited current, normalized (MEAN): S441G
T6 construct: Strep Tag II (N); superfolder GFP (sfGFP) (N); expressed in transfected cells; host or cells: HEK293T
Method: as §1, §2

[10] = biological target: T7, hEAAT2 mutant L467I (Homo sapiens, UniProt P43004, L467I); assay: whole-cell patch-clamp, hEAAT2 mutant L467I in HEK293T cells; type: cell-based; conditions: 0 mV; for WAY-213613-inhibited current, normalized (MEAN): L467I
T7 construct: Strep Tag II (N); superfolder GFP (sfGFP) (N); expressed in transfected cells; host or cells: HEK293T
Method: as §1, §2

[11] = 0.3 μM WAY-213613, normalized to current at 100 μM
[12] = 1 μM WAY-213613, normalized to current at 100 μM
[13] = 3 μM WAY-213613, normalized to current at 100 μM
[14] = 10 μM WAY-213613, normalized to current at 100 μM
[15] = 30 μM WAY-213613, normalized to current at 100 μM
[16] = 100 μM WAY-213613, normalization reference
[17] = 0.03 μM WAY-213613, normalized to current at 30 μM
[18] = 0.1 μM WAY-213613, normalized to current at 30 μM
[19] = 0.3 μM WAY-213613, normalized to current at 30 μM
[20] = 1 μM WAY-213613, normalized to current at 30 μM
[21] = 3 μM WAY-213613, normalized to current at 30 μM
[22] = 10 μM WAY-213613, normalized to current at 30 μM
[23] = 30 μM WAY-213613, normalization reference

T3 sequence (P43004 whole entry D475A): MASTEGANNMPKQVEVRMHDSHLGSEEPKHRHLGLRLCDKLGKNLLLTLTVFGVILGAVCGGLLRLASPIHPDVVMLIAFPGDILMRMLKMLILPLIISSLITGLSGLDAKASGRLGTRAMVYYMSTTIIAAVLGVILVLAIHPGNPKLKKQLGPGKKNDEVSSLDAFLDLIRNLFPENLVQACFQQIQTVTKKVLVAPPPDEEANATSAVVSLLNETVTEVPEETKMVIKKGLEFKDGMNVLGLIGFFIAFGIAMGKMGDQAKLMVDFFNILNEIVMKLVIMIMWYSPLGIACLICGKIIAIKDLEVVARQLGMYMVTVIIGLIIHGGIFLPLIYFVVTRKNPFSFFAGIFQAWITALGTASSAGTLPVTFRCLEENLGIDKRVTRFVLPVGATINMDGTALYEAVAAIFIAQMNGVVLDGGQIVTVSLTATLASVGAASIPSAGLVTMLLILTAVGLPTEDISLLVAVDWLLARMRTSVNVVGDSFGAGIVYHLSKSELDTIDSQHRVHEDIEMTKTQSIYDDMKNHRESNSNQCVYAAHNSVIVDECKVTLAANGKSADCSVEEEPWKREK
T1 sequence (P43004 whole entry R478A): as the sequence (P43004 whole entry D475A) above, with A475D, R478A counted along it
T2 sequence (P43004 whole entry I464V): as the sequence (P43004 whole entry D475A) above, with I464V, A475D counted along it
T7 sequence (P43004 whole entry L467I): as the sequence (P43004 whole entry D475A) above, with L467I, A475D counted along it
T6 sequence (P43004 whole entry S441G): as the sequence (P43004 whole entry D475A) above, with S441G, A475D counted along it
T4 sequence (P43004 whole entry V468I): as the sequence (P43004 whole entry D475A) above, with V468I, A475D counted along it
T5 sequence (P43004 whole entry, the tested form may be a part): as the sequence (P43004 whole entry D475A) above, with A475D counted along it

WAY-213613-inhibited current, normalized (MEAN) [1, 11]: 0.173
WAY-213613-inhibited current, normalized (MEAN) [1, 12]: 0.3915
WAY-213613-inhibited current, normalized (MEAN) [1, 13]: 0.5586
WAY-213613-inhibited current, normalized (MEAN) [1, 14]: 0.7927
WAY-213613-inhibited current, normalized (MEAN) [1, 15]: 0.9136
WAY-213613-inhibited current, normalized (MEAN) [1, 16]: 1
Ki ([1]; R478A mutant, read-out: apparent Ki): 1.68 µM
WAY-213613-inhibited current, normalized (MEAN) [2, 17]: 0.1438
WAY-213613-inhibited current, normalized (MEAN) [2, 18]: 0.3695
WAY-213613-inhibited current, normalized (MEAN) [2, 19]: 0.6353
WAY-213613-inhibited current, normalized (MEAN) [2, 20]: 0.8468
WAY-213613-inhibited current, normalized (MEAN) [2, 21]: 0.8861
WAY-213613-inhibited current, normalized (MEAN) [2, 22]: 0.98
WAY-213613-inhibited current, normalized (MEAN) [2, 23]: 1
Ki ([2]; I464V mutant, read-out: apparent Ki): ~0.17 µM and 0.166 µM
WAY-213613-inhibited current, normalized (MEAN) [4, 11]: 0.06104
WAY-213613-inhibited current, normalized (MEAN) [4, 12]: 0.08742
WAY-213613-inhibited current, normalized (MEAN) [4, 13]: 0.1387
WAY-213613-inhibited current, normalized (MEAN) [4, 14]: 0.2967
WAY-213613-inhibited current, normalized (MEAN) [4, 15]: 0.647
WAY-213613-inhibited current, normalized (MEAN) [4, 16]: 1
Ki ([4]; D475A mutant, read-out: apparent Ki): 30.5 µM
WAY-213613-inhibited current, normalized (MEAN) [5, 17]: 0.136
WAY-213613-inhibited current, normalized (MEAN) [5, 18]: 0.3481
WAY-213613-inhibited current, normalized (MEAN) [5, 19]: 0.6012
WAY-213613-inhibited current, normalized (MEAN) [5, 20]: 0.8026
WAY-213613-inhibited current, normalized (MEAN) [5, 21]: 0.923
WAY-213613-inhibited current, normalized (MEAN) [5, 22]: 0.993
WAY-213613-inhibited current, normalized (MEAN) [5, 23]: 1
Ki ([5]; V468I mutant, read-out: apparent Ki): ~0.2 µM and 0.196 µM
WAY-213613-inhibited current, normalized (MEAN) ([8]; 0.01 μM WAY-213613, 0 mV, normalized to current at 30 μM WAY-213613): 0.1531
WAY-213613-inhibited current, normalized (MEAN) ([8]; 0.03 μM WAY-213613, 0 mV, normalized to current at 30 μM WAY-213613): 0.3093
WAY-213613-inhibited current, normalized (MEAN) ([8]; 0.1 μM WAY-213613, 0 mV, normalized to current at 30 μM WAY-213613): 0.5406
WAY-213613-inhibited current, normalized (MEAN) ([8]; 0.3 μM WAY-213613, 0 mV, normalized to current at 30 μM WAY-213613): 0.7864
WAY-213613-inhibited current, normalized (MEAN) ([8]; 1 μM WAY-213613, 0 mV, normalized to current at 30 μM WAY-213613): 0.9254
WAY-213613-inhibited current, normalized (MEAN) ([8]; 3 μM WAY-213613, 0 mV, normalized to current at 30 μM WAY-213613): 0.9686
WAY-213613-inhibited current, normalized (MEAN) ([8]; 30 μM WAY-213613, 0 mV, normalization reference): 1
effect of inhibitor on anion leak conductance ([8]; wild-type hEAAT2): block the anion leak conductance
Ki ([8]; wild-type hEAAT2, HEK293T, 0 mV, Michaelis-Menten-like fit, read-out: apparent Ki (inhibition of anion leak current)): 0.07 ± 0.03 µM
WAY-213613-inhibited current, normalized (MEAN) [9, 17]: 0.08476
WAY-213613-inhibited current, normalized (MEAN) [9, 18]: 0.2697
WAY-213613-inhibited current, normalized (MEAN) [9, 19]: 0.5414
WAY-213613-inhibited current, normalized (MEAN) [9, 20]: 0.7785
WAY-213613-inhibited current, normalized (MEAN) [9, 21]: 0.8947
WAY-213613-inhibited current, normalized (MEAN) [9, 22]: 0.9736
WAY-213613-inhibited current, normalized (MEAN) [9, 23]: 1
Ki ([9]; S441G mutant, read-out: apparent Ki): 0.26 µM
WAY-213613-inhibited current, normalized (MEAN) [10, 17]: 0.06992
WAY-213613-inhibited current, normalized (MEAN) [10, 18]: 0.1548
WAY-213613-inhibited current, normalized (MEAN) [10, 19]: 0.4253
WAY-213613-inhibited current, normalized (MEAN) [10, 20]: 0.7036
WAY-213613-inhibited current, normalized (MEAN) [10, 21]: 0.8764
WAY-213613-inhibited current, normalized (MEAN) [10, 22]: 1.001
WAY-213613-inhibited current, normalized (MEAN) [10, 23]: 1
Ki ([10]; L467I mutant, read-out: apparent Ki): ~0.46 µM and 0.464 µM
SMILES: NC(CC(=O)Nc1ccc(Oc2cc(F)c(F)cc2Br)cc1)C(=O)O (centres unmarked) [WAY-213613]
selectivity (affinity) for hEAAT2 over hEAAT3 ([3]; hEAAT2 over hEAAT3): 44 fold
IC50 ([3]; hEAAT3): 3.8 µM
effect on ionotropic and metabotropic glutamate receptors [6]: no effect
IC50 [7]: 0.085 µM
